For 11 compounds, mass density and refractive index results are on record in the NIST ThermoML archive (doi:10.1016/j.jct.2010.12.012).

“And” between values parts separate entries of the source, which are not always exact repeats. Equal values may be shown once. Numbers after ± are expanded uncertainties.

For data set [1] the following is noted: 298.15 K; 101.33 kPa; Liquid; Vibrating tube method.
Data set [2] can be described thus: refractive index (Na D-line) (dimensionless). Conditions: 298.15 K; 101.33 kPa; Liquid; Standard Abbe refractometry.
Data set [3] in a line: xn = mol fraction of the nth substance listed. The settings on record: 298.15 K, 101 kPa, Liquid, Vibrating tube method.

As to `C1=CCCCC1` [cyclohexene], in data set [1], the mass density (commonly mass per unit of volume) turned out to be 805.69 ± 0.24 kg/m3. Besides, the refractive index (commonly the speed of light in vacuum divided by its phase velocity in the sample) in data set [2] is given as 1.44378 ± 0.00037.

As to `CC1CCCCC1` [methylcyclohexane], the mass density in data set [1] is on record as 765.02 ± 0.24 kg/m3. Also, the refractive index in data set [2] was found to be 1.42062 ± 0.00037.

Consider `CCCCn1cc[n+](C)c1.COS(=O)(=O)[O-]` [1-butyl-3-methylimidazolium methyl sulfate] + CC1CCCCC1, for which the mass density in data set [3] (x2 = 0.028) is 1207.3 ± 1.3 kg/m3.

For `C1CCCCC1` [cyclohexane], in data set [1], the mass density was 773.8 ± 0.24 kg/m3. Besides, the refractive index in data set [2] was 1.4236 ± 0.00037.

Turning to `CCCCn1cc[n+](C)c1.COS(=O)(=O)[O-]` [1-butyl-3-methylimidazolium methyl sulfate] + C1CCCCC1, the mass density in data set [3] (x2 = 0.039) is listed as 1204.53 ± 1.3 kg/m3.

Consider `C1CCCCCCC1` [cyclooctane], for which, in data set [1], the mass density was 831.47 ± 0.24 kg/m3. The refractive index in data set [2] is listed as 1.45598 ± 0.00037.

Regarding `Cc1ccccc1` [toluene], in data set [1], the mass density is listed as 862.17 ± 0.1 kg/m3. In data set [2], the refractive index is listed as 1.49399 ± 0.00031.

As for `CCCCn1cc[n+](C)c1.COS(=O)(=O)[O-]` [1-butyl-3-methylimidazolium methyl sulfate] + Cc1ccccc1, in data set [3] (x2 = 0.328), the mass density is 1151 ± 1.2 kg/m3 and 1153.43 ± 1.2 kg/m3.

Turning to `CCCCn1cc[n+](C)c1.COS(=O)(=O)[O-]` [1-butyl-3-methylimidazolium methyl sulfate], the mass density in data set [1] turned out to be 1212.59 ± 0.41 kg/m3. The refractive index in data set [2] is 1.47792 ± 0.00037.

With `C1=CCCCC1` [cyclohexene] + CCCCn1cc[n+](C)c1.COS(=O)(=O)[O-], the mass density in data set [3] (x1 = 0.071) amounted to 1201.85 ± 1.9 kg/m3.

As for `C1CCCCCCC1` [cyclooctane] + CCCCn1cc[n+](C)c1.COS(=O)(=O)[O-], in data set [3] (x1 = 0.02), the mass density stood at 1207.63 ± 1.3 kg/m3.
